2 compounds from patent US20240181068A1, “SELECTIVE NEUTRAL PH INHIBITOR OF CATHEPSIN B” (The Regents of the University of California, priority 2021, published 2024) can be followed below.

A value given as a limit tells only on which side of the number the result lay.

Common to all, as to type: biochemical
In assay [1] the target is T1, cathepsin B in SHSY5Y human neuroblastoma cell homogenate (Homo sapiens, UniProt P07858).
T1 construct: endogenous in cells; host or cells: SH-SY5Y human neuroblastoma cells
Nature of the assay: Cathepsin B activity in neuroblastoma cell homogenates in presence of inhibitors. To be noted: inhibitor 1 μM, Z-Arg-Arg-AMC substrate, pH 5.5. The protocol: Cathepsin B in human neuroblastoma cells treated with inhibitors. Neuroblastoma cells (human SHSY5Y) were grown in media consisting of 50% MEMalpha, 50% F12-K, 10% heat-inactivated FBS at 37° C. in an atmosphere of 95% air and 5% CO2. Firstly, cell homogenates were prepared by collection of cells in 0.32 M sucrose and freeze-thawing. Secondly, cells were incubated with Z-Arg-Lys-AOMK or CA-074Me for 6 hours at 37° C., and washed 3 times in phosphate-buffered saline and homogenates were prepared in 0.32 M sucrose with freeze-thawing. CA-074Me is a methyl ester form of the active CA-074 selective inhibitor of cathepsin B (70); CA-074Me penetrates the cell and is converted by intracellular esterases to CA-074.
Cathepsin B activity in the homogenates were monitored with Z-Arg-Arg-AMC substrate (60 μM) with buffer conditions of 40 mM citrate-phosphate, pH 5.5, 5 mM DTT, 1 mM EDTA, 100 mM NaCl, and 1.2% DMSO, followed by incubation at 37° C. for 30 minutes and reading of AMC fluorescence. CA-074-senstive activity was monitored to indicate cathepsin B activity, since CA-074 is a selective inhibitor of this enzyme (70). Protein content was measured in homogenates with the DC protein assay kit. Cathepsin B specific activity was calculated as nmol AMC/μg/min, and reported as the mean±SD (with analyses for statistical significance, p<0.05 by student's t-test).

The target of assay [2] is T2, cathepsin B (Homo sapiens, UniProt P07858).
T2 construct: purchased R&D Systems 953-CY-010
Briefly: Irreversible mechanism of inhibitors (pre-incubation, dilution, activity). To be noted: pH 4.6. The protocol: Irreversible mechanism of inhibitors. The irreversible or reversible mechanism of cathepsin B inhibition was assessed for Z-Arg-Lys-AOMK and Z-Glu-Lys-AOMK inhibitors. At pH 7.2, cathepsin B was incubated with 190 nM Z-Arg-Lys-AOMK and 4.99 μM Z-Glu-Lys-AOMK for 15 min in pH 7.2 assay buffer and the assay was performed as described above for pH 4.6. Proteolytic activity was monitored for 2 hr. At pH 4.6, cathepsin B (activated, 3.7 ng/μL) was incubated with 4.24 μM Z-Arg-Lys-AOMK and 3.48 μM Z-Glu-Lys-AOMK for 15 min in 40 mM citrate phosphate pH 4.6, 1 mM EDTA, 100 mM NaCl, and 5 mM DTT; a vehicle control contained 2.5% DMSO. Each reaction was then diluted 100-fold in assay buffer such that the final assay composition was 0.04 ng/μL cathepsin B, 40 μM Z-Phe-Arg-AMC, and an inhibitor concentration of 1/10th the IC50 value.

A further assay addresses T3, cathepsin L (Homo sapiens, UniProt P07711).
T3 construct: purchased R&D Systems 952-CY-010
Briefly: Specificity of inhibitors: cathepsin L (Z-Phe-Arg-AMC substrate). The settings on record: cathepsin L. The protocol: (§1) Specificity of inhibitors for other cysteine cathepsin proteases. The effects of Z-Arg-Lys-AOMK and Z-Glu-Lys-AOMK on cathepsin V, L, K, S, X, H and C activities were assessed. IC50 values were calculated at pH 4.6 and pH 7.2 conditions, consisting of 40 mM citrate phosphate, 1 mM EDTA, 100 mM NaCl, and 5 mM DTT. The inhibitor concentrations ranged from 16.38 μM to 256 nM with 2-fold serial dilutions. […] Cathepsin V (0.04 ng/μL), cathepsin L (0.03 ng/μL), cathepsin K (0.10 ng/μL), cathepsin S (0.20 ng/uL) were assayed with 40 μM Z-Phe-Arg-AMC. Cathepsin X (0.20 ng/uL), cathepsin C (0.51 ng/uL) and cathepsin H (0.1 ng/μL) were assayed with 40 μM of MCA-Arg-Pro-Pro-Gly-Phe-Ser-Ala-Phe-Lys(Dnp)OH (SEQ ID NO: 2), Gly-Arg-AMC, and Arg-AMC, respectively. Activation of pro-cathepsin H to cathepsin H was conducted by incubation of cathepsin H (4.4 ng/μL) with cathepsin L (1.1 ng/μL) at RT for 2 hrs in activation buffer (20 mM citrate phosphate pH 6.0, 100 mM NaCl, and 5 mM DTT). Cathepsin C (13.78 ng/μL) was activated by incubation with cathepsin L (3.4 ng/μL) at RT for one hr in activation buffer (20 mM citrate phosphate, pH 6.0, 100 mM NaCl, 5 mM DTT). […] For all assays containing peptide-AMC substrates the fluorescent microplate reader settings were the same as outlined above for cathepsin B. For the cathepsin X assay, the plate reader was set to excitation 320 nm, emission 400 nm, gain 105, top optics and read height 1 mm. To convert RFU/s to picomol/min, 10 μM to 0.005 μM (2-fold serial dilution) of MCA-Arg-Pro-Pro-Gly-Phe-Ser-Ala-Phe-Lys(Dnp)OH (SEQ ID NO: 2) was fully hydrolyzed with excess cathepsin X and a standard curve was generated using the total fluorescence values calculated at each concentration.

A further assay concerns the target T4, cathepsin C (Homo sapiens, UniProt P53634).
T4 construct: purchased R&D Systems 1071-CY-010
Briefly: Specificity of inhibitors: cathepsin C (Gly-Arg-AMC substrate). The settings on record: pH 7.2, from IC50. On the procedure: as §1

A further assay deals with T5, cathepsin S (Homo sapiens, UniProt P25774).
T5 construct: purchased R&D Systems 1183-CY-010
T5 sequence (P25774 115-331): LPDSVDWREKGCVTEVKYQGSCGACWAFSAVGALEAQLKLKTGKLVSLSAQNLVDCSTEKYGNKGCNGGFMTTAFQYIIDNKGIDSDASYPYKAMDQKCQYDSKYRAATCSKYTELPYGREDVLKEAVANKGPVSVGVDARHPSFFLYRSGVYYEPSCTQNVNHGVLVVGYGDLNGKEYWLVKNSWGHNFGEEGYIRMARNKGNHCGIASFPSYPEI
Nature of the assay: Specificity of inhibitors: cathepsin S (Z-Phe-Arg-AMC substrate). To be noted: cathepsin S. On the procedure:
as §1

Assay [3] concerns the target T2, cathepsin B. Briefly: Cathepsin B inhibitor kinetic characterization, fluorogenic assay with Z-Phe-Arg-AMC. The settings on record: cathepsin B. On the procedure:
Inhibitor kinetic characterization using fluorogenic assays for cathepsin B activity. Kinetic analyses of IC50, K1, kobs, and kinact/K1 values for Z-Arg-Lys-AOMK and Z-Glu-Lys-AOMK inhibition of cathepsin B were conducted by fluorogenic proteolytic assays consisting of 40 μM Z-Phe-Arg-AMC, 40 mM citrate phosphate at pH 7.2 or pH 4.6, 1 mM EDTA, 100 mM NaCl, 5 mM DTT, and 0.01% Tween 20; assays were performed at room temperature (22-27° C.) in quadruplicate. Inhibitor and substrate were combined in the reaction well, and the assay was started upon addition of cathepsin B (0.04 ng/μL). The inhibitor concentration ranged from 5.5 μM to 1.1 nM (1.5-fold serial dilution). A vehicle control assay contained 2% DMSO instead of inhibitor. Enzyme velocity (RFU/sec) was measured during a […] incubation period as relative fluorescent units per sec (RFU/s), calculated using the highest slope recorded for 10 consecutive readings taken at 46 sec intervals (thus, activity is calculated over a total of 460 sec). Prism software was used to analyze enzyme activity data in kinetic studies. IC50 values were calculated (without preincubation of inhibitor and enzyme) as the concentration of inhibitor that reduced cathepsin B activity by 50%.
For determination of K1 and kinact/K1 kinetic inhibition constants, kobs constants were determined by plots of cathepsin B activity in time courses with different inhibitor concentrations by curve fitting slope data of RFU versus time into Y=Y0*e^(−kobs*^X), where Y0 is the activity for the control with no inhibitor condition, Y is the activity in the presence of inhibitor, X is time. K1 and kinact values were calculated from curve fitting the kobs values into the equation kobs=kinact*[I]/(K1+[I]), where [I] is inhibitor concentration, and K1 is the x-axis inhibitor concentration where y=kinact/2 and kinact is the maximum rate of inactivation at saturating inhibitor concentrations (93, 94). These kinetic analyses are for irreversible inhibitors, Z-Arg-Lys-AOMK and Z-Glu-Lys-AOMK of this study, that utilize Ki values, rather than Ki values used for reversible inhibitors (93).

In a further assay the target is T6, cathepsin V (Homo sapiens, UniProt O60911).
T6 construct: purchased R&D Systems 1080-CY-010
T6 sequence (O60911 114-334): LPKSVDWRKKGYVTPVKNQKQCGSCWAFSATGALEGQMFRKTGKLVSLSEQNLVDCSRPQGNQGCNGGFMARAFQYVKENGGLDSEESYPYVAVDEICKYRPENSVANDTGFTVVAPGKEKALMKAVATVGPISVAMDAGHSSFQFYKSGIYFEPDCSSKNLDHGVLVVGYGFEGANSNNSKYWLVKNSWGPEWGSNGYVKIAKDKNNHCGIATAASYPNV
Nature of the assay: Specificity of inhibitors: cathepsin V (Z-Phe-Arg-AMC substrate). To be noted: cathepsin V. On the procedure: as §1

A further assay addresses T7, cathepsin K (Homo sapiens, UniProt P43235).
T7 construct: purchased Abcam ab157067
T7 sequence (P43235 115-329): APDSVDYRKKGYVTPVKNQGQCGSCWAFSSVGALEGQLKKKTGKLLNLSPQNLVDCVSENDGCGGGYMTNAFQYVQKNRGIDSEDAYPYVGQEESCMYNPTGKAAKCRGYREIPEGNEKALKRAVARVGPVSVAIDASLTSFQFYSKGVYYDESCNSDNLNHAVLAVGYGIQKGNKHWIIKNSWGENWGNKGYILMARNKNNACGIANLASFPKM
Nature of the assay: Specificity of inhibitors: cathepsin K (Z-Phe-Arg-AMC substrate). The settings on record: cathepsin K. On the procedure: as §1

Another assay deals with cathepsin X (Homo sapiens, UniProt Q9UBR2). Nature of the assay: Specificity of inhibitors: cathepsin X (MCA peptide substrate). To be noted: cathepsin X, pH 4.6. On the procedure:
as §1

A further assay concerns the target T8, cathepsin H (Homo sapiens, UniProt P09668).
T8 construct: purchased R&D Systems 75116-CY-010
Nature of the assay: Specificity of inhibitors: cathepsin H (Arg-AMC substrate). The settings on record: cathepsin H. The protocol:
as §1

T3 sequence (P07711 114-333): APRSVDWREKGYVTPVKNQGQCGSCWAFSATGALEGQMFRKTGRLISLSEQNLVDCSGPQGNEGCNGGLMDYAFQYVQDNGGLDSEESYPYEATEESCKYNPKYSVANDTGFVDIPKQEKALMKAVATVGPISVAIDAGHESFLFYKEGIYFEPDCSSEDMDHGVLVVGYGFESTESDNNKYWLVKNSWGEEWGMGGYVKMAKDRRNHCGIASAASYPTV
T8 sequence (P09668 116-335 limits assumed, other chains not shown): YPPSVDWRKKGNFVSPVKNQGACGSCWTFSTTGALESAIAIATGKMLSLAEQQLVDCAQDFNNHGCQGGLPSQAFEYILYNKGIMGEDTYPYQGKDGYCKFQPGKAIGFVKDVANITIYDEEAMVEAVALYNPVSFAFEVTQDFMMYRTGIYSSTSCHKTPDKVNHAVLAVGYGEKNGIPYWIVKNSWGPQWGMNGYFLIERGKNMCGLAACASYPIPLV
Chain of cathepsin X (Q9UBR2 62-303): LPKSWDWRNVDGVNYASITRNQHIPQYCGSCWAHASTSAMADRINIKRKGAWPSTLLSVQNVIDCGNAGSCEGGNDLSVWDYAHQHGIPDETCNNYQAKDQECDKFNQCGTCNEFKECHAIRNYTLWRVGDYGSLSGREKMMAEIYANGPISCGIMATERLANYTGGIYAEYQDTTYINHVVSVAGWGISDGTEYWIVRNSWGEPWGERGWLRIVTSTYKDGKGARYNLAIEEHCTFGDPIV
T4 sequence (P53634 25-134 limits assumed): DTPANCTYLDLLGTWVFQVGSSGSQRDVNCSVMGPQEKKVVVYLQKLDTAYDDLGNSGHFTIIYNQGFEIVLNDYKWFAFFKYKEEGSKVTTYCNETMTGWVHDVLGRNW
T4 sequence (P53634 231-394 limits assumed): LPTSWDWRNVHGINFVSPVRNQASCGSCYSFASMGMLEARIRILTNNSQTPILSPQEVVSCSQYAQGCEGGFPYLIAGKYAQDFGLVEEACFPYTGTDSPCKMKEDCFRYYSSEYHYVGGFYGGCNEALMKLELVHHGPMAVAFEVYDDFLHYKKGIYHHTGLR
T4 sequence (P53634 395-463 limits assumed): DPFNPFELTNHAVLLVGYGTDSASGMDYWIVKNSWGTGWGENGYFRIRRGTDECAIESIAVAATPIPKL

Turning to `CCCNC(=O)[C@H]1O[C@@H]1C(=O)N[C@H](C(=O)N1CCC[C@H]1C(=O)O)[C@@H](C)CC` [CA-074, reference compound], the “inhibition of proteolytic (cathepsin B) activity in cell lysate” value in assay [1] is reported as “completely inhibited”.
The term IC50 denotes the point on the concentration scale where inhibition reaches its midpoint. A higher IC50 goes with a need for much substance. In general, inhibition refers to the change of the read-out against control, counted positive when it falls. Lower therefore signals a response near the control. In general, kinact/KI refers to the second-order rate constant of inactivation. Consider `Cc1cccc(C)c1C(=O)OCC(=O)C(CCCCN)NC(=O)C(CCC(=O)O)NC(=O)OCc1ccccc1` (stereo not drawn) [Z-Glu-Lys-AOMK], for which the “cathepsin B activity after pre-incubation and dilution of inhibitor” value on cathepsin B [2] is reported as “no cathepsin B activity”. Further, the IC50 is more than 16 µM against cathepsin L (pH 4.6); more than 16 µM against cathepsin S (pH 4.6); more than 16 µM at cathepsin S (pH 7.2); 1.1 µM at cathepsin B [3] (pH 4.6, without preincubation); 0.32 µM at cathepsin B [3] (pH 7.2, without preincubation); more than 16 µM against cathepsin V (pH 7.2). For the same compound, the IC50 against cathepsin K (pH 4.6), on cathepsin K (pH 7.2), against cathepsin X, against cathepsin H (pH 4.6) and against cathepsin H (pH 7.2) was more than 16 µM each time. In addition, the inhibition at 16 µM at cathepsin L (pH 4.6, 16,000 nM inhibitor) is 23%; at cathepsin S (pH 4.6, 16,000 nM inhibitor), 26%; on cathepsin S (pH 7.2, 16,000 nM inhibitor), 30%; on cathepsin V (pH 7.2, 16,000 nM inhibitor), 10%; at cathepsin K (pH 4.6, 16,000 nM inhibitor), 10%. In addition, the “fold more potent for cathepsin B than cathepsin C” value on cathepsin C is 38 fold. The kinact/KI at cathepsin B [3] (pH 4.6) came out at 2000 M⁻¹ s⁻¹; on cathepsin B [3] (pH 7.2) it was 8200 M⁻¹ s⁻¹. Also, the Ki at cathepsin B [3] (pH 4.6, irreversible inhibitor) is 7.9 µM; at cathepsin B [3] (pH 7.2, irreversible inhibitor), 2.3 µM.
